32 compounds from ChEMBL document CHEMBL5512601, “Small-molecule inhibitors targeting apoptosis signal-regulated kinase 1” (Eur J Med Chem, 2023) can be followed below.

Test [1] has as its target T1, Mitogen-activated protein kinase kinase kinase 5 (Homo sapiens, UniProt Q99683).
T1 sequence (Q99683 whole entry): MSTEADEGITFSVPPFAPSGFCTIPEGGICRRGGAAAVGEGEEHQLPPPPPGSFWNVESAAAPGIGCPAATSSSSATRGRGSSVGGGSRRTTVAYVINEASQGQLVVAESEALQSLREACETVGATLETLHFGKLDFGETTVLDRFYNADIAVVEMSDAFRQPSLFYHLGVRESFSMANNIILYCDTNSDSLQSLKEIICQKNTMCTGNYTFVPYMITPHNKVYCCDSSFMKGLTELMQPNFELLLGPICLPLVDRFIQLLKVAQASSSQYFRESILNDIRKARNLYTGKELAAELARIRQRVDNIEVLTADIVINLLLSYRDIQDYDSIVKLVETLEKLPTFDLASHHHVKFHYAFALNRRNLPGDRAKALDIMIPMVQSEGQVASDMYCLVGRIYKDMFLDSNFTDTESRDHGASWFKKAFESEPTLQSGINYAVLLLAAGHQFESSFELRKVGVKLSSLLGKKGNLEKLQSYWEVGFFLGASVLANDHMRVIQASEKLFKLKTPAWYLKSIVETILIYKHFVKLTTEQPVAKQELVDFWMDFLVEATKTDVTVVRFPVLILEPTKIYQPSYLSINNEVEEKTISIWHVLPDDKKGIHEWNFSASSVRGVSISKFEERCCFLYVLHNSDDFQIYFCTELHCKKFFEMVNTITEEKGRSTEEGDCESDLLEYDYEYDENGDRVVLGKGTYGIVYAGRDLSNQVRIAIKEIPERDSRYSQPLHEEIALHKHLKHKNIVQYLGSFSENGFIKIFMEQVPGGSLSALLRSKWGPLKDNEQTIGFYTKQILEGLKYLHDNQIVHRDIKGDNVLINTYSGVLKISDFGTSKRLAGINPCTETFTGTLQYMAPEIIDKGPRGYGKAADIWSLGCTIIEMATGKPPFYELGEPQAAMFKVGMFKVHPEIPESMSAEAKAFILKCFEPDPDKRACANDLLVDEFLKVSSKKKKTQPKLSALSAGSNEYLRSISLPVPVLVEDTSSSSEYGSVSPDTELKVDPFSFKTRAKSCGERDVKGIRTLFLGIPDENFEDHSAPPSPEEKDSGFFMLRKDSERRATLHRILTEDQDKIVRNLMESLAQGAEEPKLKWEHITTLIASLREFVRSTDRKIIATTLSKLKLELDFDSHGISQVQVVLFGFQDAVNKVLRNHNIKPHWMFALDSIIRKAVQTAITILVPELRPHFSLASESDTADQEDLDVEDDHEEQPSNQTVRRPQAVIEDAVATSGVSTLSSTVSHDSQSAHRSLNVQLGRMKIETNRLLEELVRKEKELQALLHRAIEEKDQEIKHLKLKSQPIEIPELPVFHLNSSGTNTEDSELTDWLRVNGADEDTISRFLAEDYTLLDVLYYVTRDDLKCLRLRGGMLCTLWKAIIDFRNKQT
The test is described as follows: Inhibition of ASK1 (unknown origin) incubated for 0.5 to 5 hrs by TR-FRET assay. Background: Time-resolved FRET reads energy transfer from a long-lived donor to a nearby acceptor.

For test [2], the target named is T1, Mitogen-activated protein kinase kinase kinase 5. The test is described as follows: Inhibition of ASK1 (unknown origin) preincubated with compound for 30 mins followed by ATP addition and measured after 120 mins by HTRF analysis.
Test [3] has the same target. Kind of test: Inhibition of ASK1 (unknown origin).
The target is the same in test [4]. Kind of test: Inhibition of human recombinant ASK1 by HTRF assay.

As a reminder, the IC50 is the point on the concentration scale where inhibition reaches its midpoint. Compound `Cc1cc(F)c(C(=O)Nc2cccc(-c3nnc4n3CCNC4)n2)cc1-n1cnc(C2CC2)c1` registered an IC50 in test [1] of 47.8 nM.

On to `CC(C)n1cnnc1-c1cccc(-c2coc3ccc(-n4cnc(C5CC5)c4)cc3c2=O)n1`, for which the IC50 in test [2] came to 1.14 nM.

As to `CC(C)n1cnnc1-c1cccc(-c2cn(C)c3ccc(-n4cnc(C5CC5)c4)cc3c2=O)n1`, the IC50 in test [2] is 1.37 nM.

On to `CC(C)n1cnnc1-c1cccc(N2Cc3ccc(-n4cnc(C5CC5)c4)cc3C2=O)n1`, for which inhibition in test [3] was half-maximal at 0.93 nM (IC50).

In turn, `CC(C)n1cnnc1-c1cccc(N2CC(C)(C)c3ccc(-n4cnc(C5CC5)c4)cc3C2=O)n1` showed an IC50 in test [3] of 5.91 nM.

`CC(C)n1cnnc1-c1nc(NC(=O)c2cc3c(cc2F)CCCc2nc(C4CC4)cn2-3)cs1` registered an IC50 in test [3] of more than 50 nM.

In test [3], `CC(C)n1cnnc1-c1cccc(N2Cc3cc(-n4cnc(C5CC5)c4)ccc3C2=O)n1` returned an IC50 of 1.78 nM.

Compound `CC(C)n1cnnc1-c1cccc(-n2ccc3ccc(-n4cnc(C5CC5)c4)cc3c2=O)n1` displayed an IC50 in test [3] of 2.71 nM.

Take `CC(C)n1cnnc1-c1cccc(N2CCOc3ccc(-n4cnc(C5CC5)c4)cc3C2=O)n1`: the IC50 in test [2] was determined as 4.26 nM.

`Cc1cc(F)c(C(=O)Nc2cccc(-c3nnc4[nH]ccn34)n2)cc1-n1cnc(C2CC2)c1` had an IC50 in test [1] of 6.7 nM.

In test [1], `Cc1cc(F)c(C(=O)Nc2cccc(-c3nnc4ccccn34)n2)cc1-n1cnc(C2CC2)c1` displayed an IC50 of 7.8 nM.

Compound `CC(C)n1cnnc1-c1cccc(NC(=O)c2cc3c(cc2F)CNCc2nc(C4CC4)cn2-3)n1` had an IC50 in test [3] of less than 10 nM.

Consider `CC(C)n1nnnc1-c1cccc(N2C(=O)c3cc(-n4cnc(C5CC5)c4)ccc3C2(C)C)n1`, for which the IC50 came to 3.9 nM in test [1] and 5.09 nM in test [3].

Turning to `Cc1ccc(-c2cnc(-c3cccc(-c4nncn4C(C)C)n3)s2)c(F)c1`, in test [4], the IC50 was 50 nM.

For the compound `CC(C)n1cnnc1-c1cccc(NC(=O)c2cc3c(cc2F)COCc2nc(C4CC4)cn2-3)n1`, in test [3], the IC50 is less than 10 nM.

`CC(C)n1cnnc1-c1cccc(N2C(=O)c3ccc(-n4cnc(C5CC5)c4)cc3C2(C)C)n1`: the IC50 in test [3] is 3.22 nM.

The compound `COc1cc2ccn(-c3cccc(-c4nncn4C(C)C)n3)c(=O)c2cc1-n1cnc(C2CC2)c1` came in with an IC50 in test [3] of 1.65 nM.

With `CC(C)n1cnnc1-c1cccc(-n2ncc3ccc(-n4cnc(C5CC5)c4)cc3c2=O)n1`, the IC50 in test [2] was determined as 0.9 nM.

As to `CC(C)n1cnnc1-c1cccc(C(=O)Nc2cc(-n3cnc(C4CC4)c3)ccn2)n1`, in test [4], the 50% inhibitory concentration (IC50) came out at 0.7 nM.

In turn, `Cc1cc(F)c(C(=O)Nc2cccc(-c3nnc4sccn34)n2)cc1-n1cnc(C2CC2)c1` registered an IC50 in test [1] of 4.1 nM.

`CC(C)n1cnnc1-c1cccc(NC(=O)c2cc3c(cc2F)CNCCc2c(C4CC4)ncn2-3)n1` showed an IC50 in test [3] of less than 10 nM.

`Cc1cc2c(cc1-n1cnc(C3CC3)c1)C(=O)N(c1cccc(-c3nncn3C(C)C)n1)CC2` came in with an IC50 in test [3] of 2.2 nM.

As for `Cc1cc(F)c(C(=O)Nc2cccc(-c3nnc4n3CCS(=O)(=O)C4)n2)cc1-n1cnc(C2CC2)c1`, half-maximal inhibition in test [1] (IC50) required 10 nM.

Consider `Cc1ccc(-c2cnc(-c3cccc(-c4nncn4C(C)C)n3)o2)c(F)c1`, for which the IC50 in test [4] is not above 50 nM.

As to `CC(C)n1cnnc1-c1cccc(NC(=O)c2cc3c(cc2F)CNCc2c(C4CC4)ncn2-3)n1`, the IC50 in test [3] is less than 10 nM.

`CC(C)n1cnnc1-c1cccc(N2CCc3ccc(-n4cnc(C5CC5)c4)cc3C2=O)n1`: 1.83 nM corresponded to half-maximal inhibition in test [3] (IC50).

Regarding `CC(C)n1cnnc1-c1cccc(-n2cnc3ccc(-n4cnc(C5CC5)c4)cc3c2=O)n1`, in test [2], the IC50 amounted to 11.1 nM.

`CC(C)n1cnnc1-c1nc(NC(=O)c2cc3c(cc2F)CNCc2nc(C4CC4)cn2-3)cs1` showed an IC50 in test [3] of more than 50 nM.

`CC(C)n1cnnc1-c1nc(NC(=O)c2cc3c(cc2F)C(=O)NCc2nc(C4CC4)cn2-3)cs1` showed an IC50 in test [3] of more than 50 nM.

As for `Cc1cc(F)c(C(=O)Nc2cccc(-c3nnc4ncncn34)n2)cc1-n1cnc(C2CC2)c1`, half-maximal inhibition in test [1] (IC50) required 14 nM.

In the case of `CC(C)n1cnnc1-c1cccc(NC(=O)c2cc3c(cc2F)CCCc2nc(C4CC4)cn2-3)n1`, the IC50 in test [3] was less than 10 nM.

`Cc1cc(F)c(C(=O)Nc2cccc(-c3nnc4n3CCOC4)n2)cc1-n1cnc(C2CC2)c1` returned an IC50 in test [1] of 6.1 nM.
